According to patent publication US20230174571A1, “METHOD OF TREATING SHIP1-MEDIATED DISEASES USING PELOROL DERIVATIVES” (Zebrapeutics Inc., priority 2020, published 2023):

Columns and labels:
PAC2-K681A = target: T1, PAC2-K681A (Mus musculus, UniProt Q9ES52, K681A); test: Biolayer interferometry, PAC2-K681A; assay type: binding; details: 20 μM analyte; K681A vs wild-type PAC2
T1 construct: PAC1 and PAC2 consists of phosphatase and C2 domain (residues aa 402-861 and aa 402-857 respectively); made in house; host or cells: E. coli BL21 co-transformed with pBirAcm
T1 sequence (Q9ES52 402-857 K681A): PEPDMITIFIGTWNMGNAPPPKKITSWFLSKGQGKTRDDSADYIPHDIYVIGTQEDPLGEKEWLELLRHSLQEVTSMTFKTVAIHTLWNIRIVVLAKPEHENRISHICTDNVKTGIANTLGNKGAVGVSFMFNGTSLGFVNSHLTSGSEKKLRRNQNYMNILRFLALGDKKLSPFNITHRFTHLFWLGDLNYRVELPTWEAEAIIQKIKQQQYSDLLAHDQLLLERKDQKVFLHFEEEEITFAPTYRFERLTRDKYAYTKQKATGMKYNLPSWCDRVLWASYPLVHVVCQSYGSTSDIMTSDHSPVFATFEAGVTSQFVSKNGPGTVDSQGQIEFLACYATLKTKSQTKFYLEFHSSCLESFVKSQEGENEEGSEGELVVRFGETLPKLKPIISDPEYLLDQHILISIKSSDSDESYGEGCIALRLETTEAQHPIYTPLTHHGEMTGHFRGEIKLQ
Protocol: Expression of PAC2-Avi tag for Biolayer interferometry. A sequence corresponding to Avi-tag ([…]) was added to the c-terminal end of the PAC2 in LIC-HMT-PAC2 expressing vector via standard restriction digestion and ligation. The LIC-HMT-PAC2-Avi expressing vector was then co-transformed into E. coli BL21 cells with pBirAcm expression vector in 1:1 molar ratio. Overnight culture was inoculated with a 250-fold dilution to start the actual culture. The cells were grown at 37° C. in LB medium (supplemented with 50 μg/mL of kanamycin and 10 μg/mL of chloramphenicol) with shaking speed of 225 rpm. When OD600 reached about 0.6, 5 mM of biotin in bicine buffer pH 8.3 was added to the culture to have final concentration of 125 μM of biotin. The culture was then cooled down to room temperature before the addition of 0.4 mM isopropyl-B-D-1-thiogalactopyranoside (IPTG) to induce the expression of the recombinant protein with Avi-tag. The rest of the method is identical as written in “Expression of PAC2 for crystallography”.
Biolayer interferometry. […] The association was measured for 600 s at an analyte concentration of 20 μM followed by dissociation for 300 s in the same buffer as the baseline. The raw data was analyzed using the Octet Red Data Analysis software (ver. 8.2). […]

[1] = tested on: LPS-stimulated TNFα production; test: Measurement of TNFα production in LPS-stimulated SHIP1 KO cells reconstituted with SHIP1; assay type: cell-based, mouse; details: 10 ng/ml LPS
Protocol: Cell lines. J16 and J17 cell lines derived from SHIP1+/+and −/−BMDM respectively were previously described (Ming-Lum et al., 2012) and cultured in Mac media (IMDM supplemented with 10% (v/v) FCS, 10 μM β-mercaptoethanol, 150 μM monothioglycolate and 1 mM L-glutamine). J17 cells expressing wild type and mutant His6-SHIP1, Clover-SHIP1 or mRuby2-STAT3 constructs were generated by lentivirus mediated gene transfer as described (Cheung et al., 2013). Transduced cells were selected with 5 μg/ml blasticidin. Clover-SHIP1 and mRuby2-STAT3 cells were further subjected to fluorescent activated cell sorting to select the brightest cells on a FACS Aria II cytometer.
Measurement of TNFα production. Cells were seeded at 50×10^4 cells per well in a 96-well tissue culture plate and allowed to adhere overnight. Media was changed the next day 1 hour prior to stimulation. Cells were stimulated with 1 or 10 ng/ml LPS+/−various concentrations of IL10 for 1 hour. Supernatant was collected and secreted TNFα protein levels were measured using a BD OptEIA Mouse TNFα Enzyme-Linked Immunosorbent Assay (ELISA) kit (BD Biosciences, Mississauga, ON). Triplicates wells were used for each stimulation condition. IC50 values were calculated from three independent experiments and differences in IL10 […] values from cells expressing SHIP1 mutants vs SHIP1 WT protein were analyzed by one-way ANOVA.

Row | Compound | binding to PAC2 with K681A substitution (BLI) (PAC2-K681A) | TNFα production ([1]; cells expressing K681A SHIP1) | TNFα production ([1]; cells expressing wild-type SHIP1)
1 | CC12CCC3C(C)(C)C(N)CCC3(C)C1Cc1cc(O)cc(O)c12 (stereo not drawn) [Compound I-2] | impairs |  | 
2 | IL10: anti-inflammatory cytokine interleukin-10 |  | not | inhibited TNFα production efficiently
